Experimental data reported in patent publication US8772283B2, “Imidazo-oxazine compound or salt thereof” (Taiho Pharmaceutical Co., Ltd., priority 2011, dated 2014).

What was measured:
human AKT1 = human AKT1 (Homo sapiens (Human), UniProt P31749); test: AKT1 kinase activity inhibition (TR-FRET, biotinylated Crosstide substrate); format: biochemical; conditions: preincubation 120 min at 25° C.; ATP 150 μM; Crosstide 500 nM
Method: (§1) Preparation of AKT1 and AKT2 and measurement of in vitro inhibitory activity of the above-mentioned compounds against AKT1 and AKT2 kinase activity were carried out with reference to the method disclosed in Biochem. J. Vol. 385, pp 399-408 (2005). In the preparation of AKT1 and AKT2, human AKT1 and AKT2 to which a middle T antigen tag was added were expressed in Sf 9 insect cells, and then AKT1 and AKT2 were prepared following affinity purification and activation by PDK1. The prepared AKT1 and AKT2 were stored at −80° C. until the time of measurement of inhibitory activity of the compounds. In the measurement of inhibitory activity of the compounds, AKT1 or AKT2 and each compound of the present invention were preincubated at 25° C. for 120 minutes in a buffer solution for reaction (15 mM Tris-HCl pH 7.5, 0.01% Tween-20, 2 mM DTT). As a substrate, biotinylated Crosstide (bioton-KGSGSGRPRTSSFAEG), MgCl2, and ATP were added to final concentrations of 500 nM, 10 mM, and 150 μM, respectively, and reactions were carried out at 25° C. for 60 minutes. The reactions were stopped by adding EDTA to a final concentration of 80 mM. Then, a detection liquid in which an Eu-labeled anti-phosphorylation Crosstide antibody (PerkinElmer) and SureLight APC-SA (PerkinElmer) were contained at a final concentration of 0.5 nM and […], respectively, was added, and reactions were carried out at room temperature for 2 hours. Finally, the amount of fluorescence at the time of irradiation of excitation light having a wavelength of 337 nm was measured at dual wavelengths of 620 nm and 665 nm by PHERAstar FS (BMG LABTECH). The amount of phosphorylation was determined from the ratio of the fluorescence amounts at the dual wavelengths. The compound concentration at which phosphorylation can be inhibited by 50% was defined as […] (nM), and the results are shown in Table 4 below.

human AKT2 = human AKT2 (Homo sapiens (Human), UniProt P31751); test: AKT2 kinase activity inhibition (TR-FRET, biotinylated Crosstide substrate); format: biochemical; conditions: preincubation 120 min at 25° C.; ATP 150 μM; Crosstide 500 nM
Sequence of human AKT2 (P31751 whole entry): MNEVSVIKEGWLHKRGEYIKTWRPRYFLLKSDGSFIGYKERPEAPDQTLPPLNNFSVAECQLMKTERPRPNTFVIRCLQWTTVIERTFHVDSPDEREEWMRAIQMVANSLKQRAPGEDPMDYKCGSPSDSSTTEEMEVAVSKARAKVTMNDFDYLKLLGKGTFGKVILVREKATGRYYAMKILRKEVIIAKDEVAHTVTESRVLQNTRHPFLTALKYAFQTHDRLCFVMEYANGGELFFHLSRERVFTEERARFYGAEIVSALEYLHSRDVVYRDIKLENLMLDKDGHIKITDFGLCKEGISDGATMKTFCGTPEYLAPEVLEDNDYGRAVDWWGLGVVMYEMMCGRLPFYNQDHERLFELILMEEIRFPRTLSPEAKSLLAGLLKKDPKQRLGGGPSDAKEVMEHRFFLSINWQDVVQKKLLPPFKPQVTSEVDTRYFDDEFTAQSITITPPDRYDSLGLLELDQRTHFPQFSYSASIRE
Method: as §1

Sequence of human AKT1 (P31749 whole entry): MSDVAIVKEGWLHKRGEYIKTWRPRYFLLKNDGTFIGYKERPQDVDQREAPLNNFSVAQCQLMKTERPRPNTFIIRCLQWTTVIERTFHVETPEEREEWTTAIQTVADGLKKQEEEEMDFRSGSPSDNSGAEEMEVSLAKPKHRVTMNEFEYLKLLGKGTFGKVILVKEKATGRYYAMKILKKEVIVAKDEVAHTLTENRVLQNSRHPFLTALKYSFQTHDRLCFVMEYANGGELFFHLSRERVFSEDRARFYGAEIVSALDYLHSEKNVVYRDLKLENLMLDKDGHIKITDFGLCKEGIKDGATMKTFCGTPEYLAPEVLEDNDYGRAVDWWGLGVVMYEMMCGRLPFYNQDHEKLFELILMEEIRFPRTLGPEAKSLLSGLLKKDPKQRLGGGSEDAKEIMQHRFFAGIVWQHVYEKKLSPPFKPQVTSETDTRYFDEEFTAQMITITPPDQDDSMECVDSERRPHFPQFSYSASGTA

SMILES	IC50 (human AKT1)	IC50 (human AKT2)
CC1(O)CC(N)(c2ccc(-c3nc4n(c3-c3ccccc3)COc3cccc(F)c3-4)cc2)C1 (stereo not drawn) [Example 2, trans-3-amino-3-(4-(10-fluoro-3-phenyl-5H-benzo[e]imidazo[1,2-c][1,3]oxazin-2-yl)phenyl)-1-methylcyclobutanol]	4.6 nM	0.5 nM
NC1(c2ccc(-c3nc4n(c3-c3ccccc3)COc3cccc(F)c3-4)cc2)CCC1 [Example 3, 1-(4-(10-fluoro-3-phenyl-5H-benzo[e]imidazo[1,2-c][1, 3]oxazin-2-yl)phenyl)cyclobutanamine]	16 nM	1.2 nM
NC1(c2ccc(-c3nc4n(c3-c3ccsc3)COc3cccc(F)c3-4)cc2)CC(O)(C2CC2)C1 (stereo not drawn) [Example 4, trans-3-amino-1-cyclopropyl-3-(4-(10-fluoro-3-(thiophen-3-yl)-5H-benzo[e]imidazo[1,2-c][1,3]oxazin-2-yl)phenyl)cyclobutanol]	7.1 nM	0.71 nM
CC1(O)CC(N)(c2ccc(-c3nc4n(c3-c3ccsc3)COc3cccc(F)c3-4)cc2)C1 (stereo not drawn) [Example 6, trans-3-amino-3-(4-(10-fluoro-3-(thiophen-3-yl)-5H-benzo[e]imidazo[1,2-c][1,3]oxazin-2-yl)phenyl)-1-methylcyclobutanol]	9.8 nM	0.91 nM
CC1(O)CC(N)(c2ccc(-c3nc4n(c3-c3ccncc3)COc3cccc(F)c3-4)cc2)C1 (stereo not drawn) [Example 7, trans-3-amino-3-(4-(10-fluoro-3-(pyridin-4-yl)-5H-benzo[e]imidazo[1,2-c][1,3]oxazin-2-yl)phenyl)-1-methylcyclobutanol]	25 nM	1.1 nM
CC1(O)CC(N)(c2ccc(-c3nc4n(c3-c3ccccc3)COc3ccc(F)cc3-4)cc2)C1 (stereo not drawn) [Example 8, trans-3-amino-3-(4-(9-fluoro-3-phenyl-5H-benzo[e]imidazo[1,2-c][1,3]oxazin-2-yl)phenyl)-1-methylcyclobutanol]	6.4 nM	1 nM
C[C@]1(O)C[C@@](N)(c2ccc(-c3nc4n(c3-c3ccccc3)COc3cc(F)ccc3-4)cc2)C1 [Example 9, trans-3-amino-3-(4-(8-fluoro-3-phenyl-5H-benzo[e]imidazo[1,2-c][1,3]oxazin-2-yl)phenyl)-1-methylcyclobutanol]	8.5 nM	2 nM
NC1(c2ccc(-c3nc4n(c3-c3ccccc3)COc3c(F)cccc3-4)cc2)CC(O)(C2CC2)C1 (stereo not drawn) [Example 10, trans-3-amino-1-cyclopropyl-3-(4-(7-fluoro-3-phenyl-5H-benzo[e]imidazo[1,2-c][1,3]oxazin-2-yl)phenyl)cyclobutanol]	2.3 nM	1.4 nM
C[C@]1(O)C[C@@](N)(c2ccc(-c3nc4n(c3-c3ccccc3)COc3ccccc3-4)cc2)C1 [Example 12, trans-3-amino-1-methyl-3-(4-(3-phenyl-5H-benzo[e]imidazo[1,2-c][1,3]oxazin-2-yl)phenyl)cyclobutanol]	5.3 nM	1.7 nM
NC1(c2ccc(-c3nc4n(c3-c3ccccc3)COc3ccccc3-4)cc2)CCC1 [Example 13, 1-(4-(3-phenyl-5H-benzo[e]imidazo[1,2-c][1,3]oxazin-2-yl)phenyl)cyclobutanamine]	13 nM	2.8 nM
NC1(c2ccc(-c3nc4n(c3-c3ccsc3)COc3ccccc3-4)cc2)CCC1 [Example 14, 1-(4-(3-(thiophen-3-yl)-5H-benzo[e]imidazo[1,2-c][1,3]oxazin-2-yl)phenyl)cyclobutanamine]	27 nM	5.4 nM
NC1(c2ccc(-c3nc4n(c3-c3ccncc3)COc3ccccc3-4)cc2)CCC1 [Example 15, 1-(4-(3-(pyridin-4-yl)-5H-benzo[e]imidazo[1,2-c][1,3]oxazin-2-yl)phenyl)cyclobutanamine]	51 nM	6.5 nM
COc1cccc2c1OCn1c-2nc(-c2ccc([C@]3(N)C[C@@](O)(C4CC4)C3)cc2)c1-c1ccccc1 [Example 19, trans-3-amino-1-cyclopropyl-3-(4-(7-methoxy-3-phenyl-5H-benzo[e]imidazo[1,2-c][1,3]oxazin-2-yl)phenyl)cyclobutanol]	16 nM	2 nM
COc1ccc2c(c1)-c1nc(-c3ccc(C4(N)CC(C)(O)C4)cc3)c(-c3ccccc3)n1CO2 (stereo not drawn) [Example 20, trans-3-amino-3-(4-(9-methoxy-3-phenyl-5H-benzo[e]imidazo[1,2-c][1,3]oxazin-2-yl)phenyl)-1-methylcyclobutanol]	2.9 nM	0.75 nM
COc1ccc2c(c1)OCn1c-2nc(-c2ccc(C3(N)CC(C)(O)C3)cc2)c1-c1ccccc1 (stereo not drawn) [Example 21, trans-3-amino-3-(4-(8-methoxy-3-phenyl-5H-benzo[e]imidazo[1,2-c][1,3]oxazin-2-yl)phenyl)-1-methylcyclobutanol]	6 nM	0.91 nM
NC1(c2ccc(-c3nc4n(c3-c3ccccc3)COc3cccc(Cl)c3-4)cc2)CC(O)(C2CC2)C1 (stereo not drawn) [Example 22, trans-3-amino-3-(4-(10-chloro-3-phenyl-5H-benzo[e]imidazo[1,2-c][1,3]oxazin-2-yl)phenyl)-1-cyclopropylcyclobutanol]	8.2 nM	0.3 nM
CCOc1cccc2c1-c1nc(-c3ccc(C4(N)CC(O)(C5CC5)C4)cc3)c(-c3ccccc3)n1CO2 (stereo not drawn) [Example 23, trans-3-amino-1-cyclopropyl-3-(4-(10-ethoxy-3-phenyl-5H-benzo[e]imidazo[1,2-c][1,3]oxazin-2-yl)phenyl)cyclobutanol]	28 nM	1.7 nM
CCOc1cccc2c1-c1nc(-c3ccc(C4(N)CC(C)(O)C4)cc3)c(-c3ccccc3)n1CO2 (stereo not drawn) [Example 24, trans-3-amino-3-(4-(10-ethoxy-3-phenyl-5H-benzo[e]imidazo[1,2-c][1,3]oxazin-2-yl)phenyl)-1-methylcyclobutanol]	30 nM	1.8 nM
COc1cc(OC)c2c(c1)OCn1c-2nc(-c2ccc(C3(N)CC(O)(C4CC4)C3)cc2)c1-c1ccccc1 (stereo not drawn) [Example 25, trans-3-amino-1-cyclopropyl-3-(4-(8,10-dimethoxy-3-phenyl-5H-benzo[e]imidazo[1,2-c][1,3]oxazin-2-yl)phenyl)cyclobutanol]	12 nM	0.27 nM
Cc1cccc2c1OCn1c-2nc(-c2ccc([C@]3(N)C[C@@](O)(C4CC4)C3)cc2)c1-c1ccccc1 [Example 26, trans-3-amino-1-cyclopropyl-3-(4-(7-methyl-3-phenyl-5H-benzo[e]imidazo[1,2-c][1,3]oxazin-2-yl)phenyl)cyclobutanol]	26 nM	1.5 nM
NC1(c2ccc(-c3nc4n(c3-c3ccccc3)COc3cccnc3-4)cc2)CCC1 [Example 29, 1-(4-(3-phenyl-5H-imidazo[1,2-c]pyrido[2,3-e][1,3]oxazin-2-yl)phenyl)cyclobutanamine]	35 nM	4 nM
NC1(c2ccc(-c3nc4n(c3-c3ccccc3)COc3ccncc3-4)cc2)CCC1 [Example 33, 1-(4-(3-phenyl-5H-imidazo[1,2-c]pyrido[3,4-e][1,3]oxazin-2-yl)phenyl)cyclobutanamine]	14 nM	1.7 nM
CC[C@]1(O)C[C@@](N)(c2ccc(-c3nc4n(c3-c3ccccc3)COc3ccncc3-4)cc2)C1 [Example 34, trans-3-amino-1-ethyl-3-(4-(3-phenyl-5H-imidazo[1,2-c]pyrido[3,4-e][1,3]oxazin-2-yl)phenyl)cyclobutanol]	12 nM	2.1 nM
NC1(c2ccc(-c3nc4n(c3-c3ccccc3)COc3cnccc3-4)cc2)CCC1 [Example 37, 1-(4-(3-phenyl-5H-imidazo[1,2-c]pyrido[4,3-e][1,3]oxazin-2-yl)phenyl)cyclobutanamine]	5.5 nM	1.1 nM
CC1(O)CC(N)(c2ccc(-c3nc4n(c3-c3ccccc3)COc3ncccc3-4)cc2)C1 (stereo not drawn) [Example 39, trans-3-amino-1-methyl-3-(4-(3-phenyl-5H-imidazo[1,2-c]pyrido[3,2-e][1,3]oxazin-2-yl)phenyl)cyclobutanol]	1.4 nM	0.97 nM
NC1(c2ccc(-c3nc4n(c3-c3ccccc3)COc3ncccc3-4)cc2)CCC1 [Example 40, 1-(4-(3-phenyl-5H-imidazo[1,2-c]pyrido[3,2-e][1,3]oxazin-2-yl)phenyl)cyclobutanamine]	3.9 nM	1.6 nM
CCC1(O)CC(N)(c2ccc(-c3nc4n(c3-c3ccccc3)COc3nccnc3-4)cc2)C1 (stereo not drawn) [Example 43, trans-3-amino-1-ethyl-3-(4-(3-phenyl-5H-imidazo[1,2-c]pyrazino[2,3-e][1,3]oxazin-2-yl)phenyl)cyclobutanol]	8 nM	7 nM
